Key:
Staphylococcus aureus = assay: Zone of inhibition test (Procedure 2) on Staphylococcus aureus; type: cell-based; settings: DSA plates, 37° C., every 24 hours over the test period (72 hours)
Description: (§1) Six 2 cm×2 cm squares of each sample are cut out in sterile conditions. On day one of the experiment, cultures of both Pseudomonas aeruginosa (ATCC 27853 and various PSI strains) and Staphylococcus aureus (provided by the Dept of Clinical Microbiology and Pathology) are incubated aerobically at 37° C. for 24 hours on Diagnostic Sensitivity Agar (DSA). After 24 hours test samples are each placed on a DSA plate and immediately wetted with 0.5 mls of a buffer solution. Three squares of sample are placed on plates inoculated with Pseudomonas aeruginosa and three are placed on plates inoculated with Staphylococcus aureus. The plates are then incubated at 37° C. for 24 hours. The zone of inhibited growth around the sample is then measured using calipers, and the test sample is placed on a new inoculated DSA plate. A swab test is carried out on the area beneath the sample to determine if the sample is bacteriostatic if not bactericidal by smearing the swab on a DSA plate and incubating it for 24 hours and then examining the growth.

[1] = system: Pseudomonas aeruginosa (ATCC 27853 and various PSI strains); assay: Zone of inhibition test (Procedure 2) on Pseudomonas aeruginosa; type: cell-based; settings: DSA plates, 37° C., every 24 hours over the test period (72 hours)
Description: as §1

[2] = DPPH test (Procedure 1), free radical / antioxidant activity; settings: positive control at 10^-4M; percentage reduction of absorbance at 524 nm relative to the control after 4 hours
Description: Preferably, the material according to the present invention has a free radical activity, that is to say an antioxidant activity, of at least about 15% in the diphenylpicrylhydrazyl (DPPH) test, measured as percentage reduction in absorbance at 524 nm after 4 hours of a 0.5% w/v dispersion of the polysaccharide in 10^−4M DPPH, as described further hereinbelow in Procedure 1. Preferably the percentage reduction in absorbance in the DPPH test (after correction for any absorbance by the dye) is at least about 25%, more preferably at least about 50%, and most preferably at least about 75%.
The ability of the wound dressing materials to react with and remove oxygen containing free radicals is assessed by the DPPH test described in WO94/13333, the entire content of which is expressly incorporated herein by reference. […]
Briefly, the wound dressing material under test (2.5 mg; 5 mg; & 25 mg sample sizes) was suspended in 2.5 ml of 0.1M pH 7.0 phosphate buffer. […] The samples were assessed by measurement of their light absorbance at 524 nm over 6 hours in comparison with a control, particular attention being paid to the figure after 4 hours. The percentage reduction of absorbance relative to the control after 4 hours gives the DPPH test value, with a reproducibility generally of ±5%. […]

In the case of `O=[N+]([O-])[O-].[Ag+]` [silver nitrate solution (0.5%), silver nitrate], the zone of inhibition (Staphylococcus aureus) is reported as “zones of inhibition were observed” and the zone of inhibition [1] is reported as “zones of inhibition were observed”.

For `O=C1O[C@H]([C@@H](O)CO)C(O)=C1O` [positive control, Ascorbic acid], the DPPH test value [2] was 80-90%.

Reference: patent US20060159732A1, “Antioxidant wound dressing materials” (priority 2003, published 2006)
